Laboratory results: publication PMC8619202, “Optimization of Microwave-Assisted Green Method for Enhanced Solubilization of Water-Soluble Curcuminoids Prepared Using Steviol Glycosides” (Foods, 2021)
≈ marks a conversion by molar mass, not a printed value.

Experiments:
[1] = Solubility of curcuminoids in the presence of steviol glycosides, with or without microwave or other physical treatment, HPLC; conditions: steviol glycoside 10% w/v; for Bisdemethoxycurcumin (mg/mL) NT / Curcumin (mg/mL) NT / Demethoxycurcumin (mg/mL) NT / Total Curcuminoids (mg/mL) NT: not treated by microwave
Procedure: The effect of water concentration to extract curcuminoids was investigated. […] The mixture in an ethanol solution was vortexed for 15 min and centrifuged at 12,000× g for 10 min (SupraR30, W × D × H: 710 × 1000 × 1260 mm, Hanil Scientific Inc., Gimp, Korea). The supernatant was transferred to a new tube and ethanol was evaporated. The resulting powders were dissolved in water, centrifuged at 12,000× g for 10 min, and filtered through a 0.20 μm membrane (Agilent, Santa Clara, CA, USA).
Weighing of the appropriate amounts of each steviol glycoside and curcuminoids was carried out, and they were put into 50 mL glass bottles. Furthermore, the suspension of curcuminoid–SG was subjected to heating by exposure to microwave irradiation in a microwave-assisted extractor (CEM, Matthews, NC, USA) at 100 W and 25 °C. Prior to conducting chromatographic analyses as per the reported method of Nguyen et al., the filtration of all samples was performed using a 0.45 μm nylon syringe filter (Millipore, Billerica, MA, USA). The quantitative concentration determination of curcuminoids and SGs was performed by employing series of standard solutions of curcuminoid in methanol with concentrations ranging from 0.15 to 10 μg/mL according to the reported method. Chromatographic separation for quantitative analysis was carried out using an Agilent 1200 liquid chromatographic system (Agilent Technologies, Palo Alto, CA, USA) equipped with an autosampler, quaternary HPLC pump, degasser, ZORBAX SB-C18 column (5 μm, 4.6 × 150 mm), and UV detector (VWD) set at 210 and 260 nm. The mobile phase for HPLC consisted of solvent A, which was 0.1% trifluoroacetic acid in water, and solvent B, which was 0.1% trifluoroacetic acid in acetonitrile. The solvent gradient was as follows (relative to solvent A): 0 min, 80% A; 10 min, 75% B; 20 min, 65% B; 30 min, 50% B; 40 min, 40%; 50 min, 30%; 60 min, 0% B; 0 min, 20%; 10 min, 25% B; 20 min, 35% B; 30 min, 50%; 40 min, 60%; 50 min, 70%; and 60 min, 100%. The column temperature was maintained at 30 °C with an injection volume of 10 μL at a flow rate of 1.0 mL/min.
(§1) In order to evaluate the stability in 10% (w/v) SGs, the water-soluble curcuminoids were analyzed by HPLC for 1 month. […] In order to achieve better solubility, transglycosylation is regarded as an important procedural phenomenon that leads to structural modifications and derivatizations that result in enhanced biological activities and improved solubility. Moreover, heating in the case of microwave irradiation is usually dependent on the nature of the sample, the solvent employed, and the irradiation power level mediated through the ionic conduction and dipole rotation (also known as dipole polarization) of the microwaves. In the absence of ions, water dipoles are found in the free form and may experience dipole rotation due to microwave radiation-induced oscillation.

[2] = Storage stability of curcuminoids solubilized in steviol glycoside solutions, HPLC; conditions: for stability of solubilized curcuminoids at room temperature: 10% (w/v) SG, protected from light, 24 h
Procedure: as §1

[3] = cited from earlier work; for solubility in dimethyl sulfoxide / solubility in ethanol / solubility in water: from C. longa

With α-glucosyl stevioside [STG] the “Total Curcuminoids Ratio Microwave /NT (fold)” value [1] was 7.0 fold, the “Bisdemethoxycurcumin (mg/mL) NT” value [1] was 0.04 ± 0.01 mg/mL and the “Curcumin (mg/mL) NT” value [1] was 0.51 ± 0.2 mg/mL. The “Demethoxycurcumin (mg/mL) NT” value [1] was 0.05 ± 0.01 mg/mL, the “Total Curcuminoids (mg/mL) NT” value [1] was 0.61 ± 0.1 mg/mL and the “Bisdemethoxycurcumin (mg/mL) Microwave” value [1] was 0.69 ± 0.2 mg/mL. For the same compound, the “Curcumin (mg/mL) Microwave” value [1] was 2.72 ± 0.3 mg/mL, the “Demethoxycurcumin (mg/mL) Microwave” value [1] was 0.83 ± 0.1 mg/mL and the “Total Curcuminoids (mg/mL) Microwave” value [1] was 4.24 ± 0.6 mg/mL. The “stability of aqueous curcuminoid solutions on long-term storage” value [2] was “very good stability”.
In the case of O=C(/C=C/c1ccc(O)cc1)CC(=O)/C=C/c1ccc(O)cc1 [BDMC, bisdemethoxycurcumin], the “solubility in dimethyl sulfoxide” value [3] is listed as 25 g/L (≈ 81.1 mM), the solubility in ethanol [3] is listed as 10 g/L (≈ 32.4 mM) and the solubility in water [3] is listed as 11 mg/L (≈ 0.0357 mM).
For C=C1C[C@@]23CC[C@H]4[C@@](C)(CCC[C@@]4(C)C(=O)O[C@@H]4O[C@H](CO)[C@@H](O)[C@H](O)[C@H]4O)[C@@H]2CC[C@]1(O[C@@H]1O[C@H](CO)[C@@H](O)[C@H](O)[C@H]1O)C3 [R, rubusoside], the “stability of solubilized curcuminoids at room temperature” value [2] is listed as “highly stable”, the “stability of aqueous curcuminoid solutions on long-term storage” value [2] is listed as “did not exhibit good stability” and the “solubility of curcumin in rubusoside aqueous solution” value ([3]; 10% rubusoside aqueous solution (w/v)) is listed as 0.6 to 2.3 mg/mL.
For COc1cc(/C=C/C(O)=C/C(=O)/C=C/c2ccc(O)cc2)ccc1O [DMC, demethoxycurcumin], the “solubility in dimethyl sulfoxide” value [3] is listed as 25 g/L (≈ 73.9 mM), the solubility in ethanol [3] is listed as 10 g/L (≈ 29.6 mM) and the solubility in water [3] is listed as 11 mg/L (≈ 0.0325 mM).
In the case of COc1cc(/C=C/C(=O)CC(=O)/C=C/c2ccc(O)c(OC)c2)ccc1O [Curcumin, curcumin], the “solubility in dimethyl sulfoxide” value [3] is listed as 25 g/L (≈ 67.9 mM), the solubility in ethanol [3] is listed as 10 g/L (≈ 27.1 mM) and the solubility in water [3] is listed as 11 mg/L (≈ 0.0299 mM).
For C=C1C[C@@]23CC[C@H]4[C@@](C)(CCC[C@@]4(C)C(=O)O)[C@@H]2CC[C@]1(O[C@@H]1O[C@H](CO)[C@@H](O)[C@H](O)[C@H]1O)C3 [SMG, steviol mono-glucoside], the “Total Curcuminoids Ratio Microwave /NT (fold)” value [1] was 7.3 fold, the “Bisdemethoxycurcumin (mg/mL) NT” value [1] was 0.04 ± 0.01 mg/mL and the “Curcumin (mg/mL) NT” value [1] was 0.46 ± 0.1 mg/mL. The “Demethoxycurcumin (mg/mL) NT” value [1] was 0.04 ± 0.01 mg/mL, the “Total Curcuminoids (mg/mL) NT” value [1] was 0.54 ± 0.1 mg/mL and the “Bisdemethoxycurcumin (mg/mL) Microwave” value [1] was 0.52 ± 0.1 mg/mL. For the same compound, the “Curcumin (mg/mL) Microwave” value [1] was 2.52 ± 0.15 mg/mL, the “Demethoxycurcumin (mg/mL) Microwave” value [1] was 0.88 ± 0.1 mg/mL and the “Total Curcuminoids (mg/mL) Microwave” value [1] was 3.92 ± 0.5 mg/mL.
For C=C1C[C@@]23CC[C@H]4[C@@](C)(CCC[C@@]4(C)C(=O)O[C@@H]4O[C@H](CO)[C@@H](O)[C@H](O)[C@H]4O)[C@@H]2CC[C@]1(O[C@@H]1O[C@H](CO)[C@@H](O)[C@H](O)[C@H]1O[C@@H]1O[C@H](CO)[C@@H](O)[C@H](O)[C@H]1O)C3 [ST, stevioside], the “stability of solubilized curcuminoids at room temperature” value [2] was “highly stable”.
